Reference: article PMC4798002 (Bioorganic & medicinal chemistry letters, 2014)
≈ marks a conversion by molar mass, not a printed value. Where two headings read alike, the source gives them in different places.

Columns and labels:
[1] = system: hyper-permeable, ANT(2″)-Ia-expressing strain of E. coli BW25113; assay: Checkerboard analysis with gentamicin against ANT; assay type: cell-based; conditions: for synergy with gentamicin (in words): ANT(2″)-Ia-expressing E. coli
ANT(2″)-Ia [2] = molecular target: T1, ANT(2″)-Ia (Klebsiella pneumoniae, UniProt P0AE05); assay: ANT; assay type: biochemical; conditions: for fold less potent than β-thujaplicinol: relative to β-thujaplicinol; for fold increase in activity over the other synthetic α-hydroxytropolones: relative to other synthetic α-hydroxytropolones
ANT(2″)-Ia [3] = molecular target: T1, ANT(2″)-Ia; conditions: cited from earlier work
[4] = system: E. coli BW25113 wild type; assay: Gentamicin MIC against wild type E. coli; assay type: cell-based; conditions: Escherichia coli, BW25113, read-out: gentamicin MIC
[5] = system: isogenic E. coli mutant with the gene encoding aminoglycoside phosphotransferase (APH[2″]-Id); assay: Checkerboard analysis with gentamicin against APH; assay type: cell-based; conditions: ANT(2″)-Ia-negative, APH(2″)-Id-positive bacteria
[6] = purified enzyme, 96 well format

T1 sequence (P0AE05 whole entry): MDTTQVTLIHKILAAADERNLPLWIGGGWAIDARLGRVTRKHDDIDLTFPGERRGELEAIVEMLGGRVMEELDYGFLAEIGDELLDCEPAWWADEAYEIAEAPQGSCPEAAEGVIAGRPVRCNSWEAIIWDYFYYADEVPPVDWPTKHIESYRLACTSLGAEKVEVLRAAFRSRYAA

Compound	synergy with gentamicin (in words) [1]	ANT(2″)-Ia inhibitory activity (in words) (ANT(2″)-Ia [2]; [6])	further results
CC(=O)c1cc(O)c(=O)c(O)cc1C [3e]	Synergy	significant inhibitory potency	gentamicin concentration at which no growth is seen ([1]; 50 μM of compound, lowest concentration of gentamicin tested): ≤ 2 µg/mL; fold less potent than β-thujaplicinol (ANT(2″)-Ia [2]): 5–10 fold
Cc1cc(O)c(=O)c(O)cc1-c1ccc([N+](=O)[O-])cc1 [3g]	no synergistic activity	significant inhibitory potency	fold less potent than β-thujaplicinol (ANT(2″)-Ia [2]): 5–10 fold
Cc1cc(O)c(=O)c(O)cc1-c1ccc(-c2ccccc2)cc1 [3h]	no synergistic activity	–	–
Cc1cc(O)c(=O)c(O)cc1-c1ccccc1 [3i]	–	comparable potency to nitroaryl-containing 3g	–
Cc1cc(O)c(=O)c(O)cc1-c1cccc2ccccc12 [3j]	–	no activity at all	–
Cc1cc(O)c(=O)c(O)cc1-c1ccc2ccccc2c1 [3k]	–	no activity at all	–
Cc1cc(O)c(=O)c(O)cc1-c1ccc(Br)cc1 [3l]	no synergistic activity	–	fold increase in activity over the other synthetic α-hydroxytropolones (ANT(2″)-Ia [2]): ~4 fold
Cc1cc(O)c(=O)c(O)cc1-c1ccc(Cl)cc1 [3m]	no synergistic activity	–	fold increase in activity over the other synthetic α-hydroxytropolones (ANT(2″)-Ia [2]): ~4 fold
Cc1cc(O)c(=O)c(O)cc1-c1ccc(C(F)(F)F)cc1 [3n]	Synergy	no activity at all	–
Cc1cc(O)c(=O)c(O)cc1C(=O)C(C)C [3o]	–	appreciable inhibitory activity, which was comparable to 3e	–
Cc1cc(O)c(=O)c(O)cc1C(=O)C1CCCCC1 [3p]	–	inactivity	–
Cc1cc(O)c(=O)c(O)cc1C(=O)CC1CCCCC1 [3q]	–	inactivity	–
COc1cc(C)c(C(C)=O)cc(O)c1=O [4e]	–	–	ANT(2″)-Ia inhibitory activity (in words) (ANT(2″)-Ia [2]): inactive
COc1cc(C)c(-c2ccc([N+](=O)[O-])cc2)cc(O)c1=O [4g]	–	–	ANT(2″)-Ia inhibitory activity (in words) (ANT(2″)-Ia [2]): inactive
O=c1cccccc1O [Tropolone]	–	–	ANT(2″)-Ia inhibition (in words) (ANT(2″)-Ia [3]): no activity
CNC(C)C1CCC(N)C(OC2C(N)CC(N)C(OC3OCC(C)(O)C(NC)C3O)C2O)O1 (centres unmarked) [gentamicin, reference compound]	–	–	MIC [4]: 0.25 µg/mL (≈ 0.523 µM); MIC ([1]; Escherichia coli, BW25113, read-out: gentamicin MIC): 64 µg/mL
O=c1c(O)ccccc1O [α-hydroxytropolone]	–	–	ANT(2″)-Ia inhibition (in words) (ANT(2″)-Ia [3]): capable of inhibiting
CC(C)c1ccc(O)c(=O)c(O)c1 [β-thujaplicinol]	–	–	ANT(2″)-Ia inhibition (in words) (ANT(2″)-Ia [3]): capable of inhibiting; antibacterial effect of compound (in words) ([1]; 50 μM of compound): all of the bacterial cells have died; synergy with gentamicin (in words) [5]: no synergy
